This is an account of results in patent US20070213408A1, “Use of Acetyl L-Carnitine for the Preparation of a Medicine for the Treatment of Neuropathic Pain in Diabetic Patients” (SIGMA-TAU INDUSTRIE FARMACEUTICHE RIUNITE S.P.A., priority 2004, published 2007).

Test [1] relates to Patients with type 2 diabetes not on insulin treatment. Briefly: Double-blind placebo-controlled clinical trials in diabetic peripheral neuropathy, VAS pain assessment, patients not on insulin. Type of test: in vivo, human. The note with it: for VAS: 52 weeks. As to the method: (§1) Two double-blind placebo-controlled clinical trials, identical in their experimental design, were conducted in patients with diagnoses of diabetic peripheral neuropathy selected according to the criteria established in the San Antonio, Tex. conference (Diabetes 37:1000-1004, 1988).
(§2) Acetyl L-carnitine was administered orally at doses of 1.5 g/day and 3.0 g/day for continuously for 52 weeks.
(§3) One objective of the studies consisted in the possible modification of the Visual Analogue Scale (VAS) (Scott J. Huskisson EC. Graphic representation of pain. Pain 1976;2:175-184) in the subjective assessment of pain symptoms and the main sensorimotor clinical parameters.

Test [2] relates to Patients with type 2 diabetes on insulin treatment. Nature of the test: Double-blind placebo-controlled clinical trials in diabetic peripheral neuropathy, VAS pain assessment, patients on insulin. Type of test: in vivo, human. The note with it: 52 weeks. As to the method:
as §1, §2, §3
The second population comprised patients with type 2 diabetes treated with insulin. Here, too, the population included a placebo group (Group 4) matching up to the same inclusion criteria as the patients treated with acetyl L-carnitine (on insulin treatment).

Test [3] relates to type I and II diabetics with symmetrical distal polyneuropathy or multineuropathy. The note with it: treated patients out of 333 recruited; cited from earlier work.
Test [4] concerns patients with diabetic neuropathy. The note with it: 120 patients with diabetic neuropathy; cited from earlier work.
The test system is the same in test [5]. The note with it: approximately 200 patients with diabetic neuropathy; cited from earlier work.

Consider `CC(=O)O[C@H](CC(=O)[O-])C[N+](C)(C)C` [Acetyl L-carnitine, acetyl L-carnitine], for which the VAS in test [1] (1.5 g/day orally, n = 39 pts) is 7.6 ± 34.7; in test [1] (3.0 g/day orally, n = 40 pts) it was 24.2 ± 32.3; in test [2] (1.5 g/die orally, n = 41 pts) it was 16.8 ± 30.1; in test [2] (3.0 g/day orally, n = 57 pts), 25.9 ± 31.2. In test [1] (end of treatment, active only at higher dose (3 g/day)), the “activity compared to the placebo group” value is listed as “active in a dose-related manner”. For the same compound, the “patients presenting an improvement in pain symptoms” value in test [3] is recorded as 39%. Also, the improvement in symptoms result in test [4] is on record as “distinct improvement in symptoms”. Besides, the “difference between acetyl L-carnitine and placebo” value in test [5] was “failed to show any significant difference”.
